ChEMBL document CHEMBL4814056, “Discovery of chalcone analogues as novel NLRP3 inflammasome inhibitors with potent anti-inflammation activities” (Eur J Med Chem, 2021)

What was measured:
[1] = biological target: NACHT, LRR and PYD domains-containing protein 3 (Mus musculus, UniProt Q8R4B8); assay: Inhibition of NLRP3 in mouse J774A.1 cells infected with FLA-ST assessed as inhibition of LPS- induced IL-1beta production by ELISA; format: cell-based, J774.A1
[2] = Stability assessed as glutathione reactivity of compound incubated for 24 hrs; format: physicochemical
[3] = Cytotoxicity against human HEK293T cells assessed as reduction in cell viability at 24 hrs by CCK8 assay; format: cell-based, HEK-293T; settings: read-out: TD50
[4] = Selectivity index, ratio of TC50 for cytotoxicity against human HEK293T cells to IC50 for inhibition of NLRP3 in mouse J774A.1 cells
[5] = Solubility of compound; format: physicochemical

NACHT, LRR and PYD domains-containing protein 3, sequence (Q8R4B8 whole entry, the tested form may be a part): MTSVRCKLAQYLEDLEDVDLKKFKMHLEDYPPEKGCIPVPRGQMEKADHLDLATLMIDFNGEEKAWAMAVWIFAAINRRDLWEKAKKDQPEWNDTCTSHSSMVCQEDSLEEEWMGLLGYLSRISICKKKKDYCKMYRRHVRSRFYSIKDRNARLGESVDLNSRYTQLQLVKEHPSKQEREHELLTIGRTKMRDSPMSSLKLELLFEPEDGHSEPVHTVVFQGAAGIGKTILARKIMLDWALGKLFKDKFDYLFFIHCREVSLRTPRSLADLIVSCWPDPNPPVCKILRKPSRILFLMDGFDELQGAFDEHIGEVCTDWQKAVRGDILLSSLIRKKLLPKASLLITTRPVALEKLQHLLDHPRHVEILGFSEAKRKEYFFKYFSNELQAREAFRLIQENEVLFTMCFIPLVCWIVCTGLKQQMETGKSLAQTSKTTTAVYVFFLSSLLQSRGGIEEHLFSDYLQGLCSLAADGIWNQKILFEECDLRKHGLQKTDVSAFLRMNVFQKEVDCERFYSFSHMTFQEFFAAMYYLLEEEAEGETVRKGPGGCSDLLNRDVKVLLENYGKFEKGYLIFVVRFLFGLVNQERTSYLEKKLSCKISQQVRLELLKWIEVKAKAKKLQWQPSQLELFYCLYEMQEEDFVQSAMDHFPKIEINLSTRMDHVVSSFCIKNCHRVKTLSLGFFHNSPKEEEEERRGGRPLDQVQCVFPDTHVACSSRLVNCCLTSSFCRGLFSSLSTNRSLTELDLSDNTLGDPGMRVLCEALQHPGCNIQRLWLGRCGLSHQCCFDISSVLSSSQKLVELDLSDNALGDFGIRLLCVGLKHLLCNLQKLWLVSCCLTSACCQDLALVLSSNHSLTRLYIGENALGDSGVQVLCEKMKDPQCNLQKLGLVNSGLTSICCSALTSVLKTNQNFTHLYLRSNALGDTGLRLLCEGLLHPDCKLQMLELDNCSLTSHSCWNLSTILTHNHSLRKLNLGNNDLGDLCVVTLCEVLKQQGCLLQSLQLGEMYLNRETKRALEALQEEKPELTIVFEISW

| SMILES | IC50 [1] [µM] | also measured |
| --- | --- | --- |
| CSc1ccc(C(=O)/C=C/c2cc(C)c(OCCCCC(=O)O)c(C)c2)cc1 | 28.9 |  |
| COc1c(C)cc(/C=C/C(=O)c2ccc(N(C)C)cc2)cc1C | 25.9 |  |
| CCC(Oc1c(C)cc(/C=C/C(=O)c2ccc(SC)cc2)cc1C)C(=O)O (stereo not given) | 31.7 |  |
| COc1c(C)cc(/C=C/C(=O)c2ccc(SC)cc2)cc1C | 49.5 |  |
| CSc1ccc(C(=O)/C=C/c2c(C)cc(O)cc2C)cc1 | > 40 |  |
| COc1cc(/C=C/C(=O)c2ccc(SC)cc2)cc(OC)c1O | > 40 |  |
| CSc1ccc(C(=O)/C=C/c2cc(C)c(OCC(=O)O)c(C)c2)cc1 | > 40 |  |
| COc1c(C)cc(/C=C/C(=O)c2ccc(NC(=O)Nc3ccc(C)cc3)cc2)cc1C | 38.7 |  |
| Cc1cc(/C=C/C(=O)c2ccc(I)cc2)cc(C)c1O | 28.6 |  |
| Cc1cc(/C=C/C(=O)c2ccc(-c3cccs3)cc2)cc(C)c1O | > 40 |  |
| Cc1ccc(-c2ccc(C(=O)/C=C/c3cc(C)c(O)c(C)c3)cc2)s1 | > 40 |  |
| CSc1ccc(C(=O)/C=C/c2ccc3c(c2)CCO3)cc1 | 24.2 |  |

Molecules with a lower IC50 [1], results first:

| IC50 [1] [µM] | SMILES | also measured |
| --- | --- | --- |
| 21.9 | CSc1ccc(C(=O)/C=C/c2cc(C)c(OCCCN3CCOCC3)c(C)c2)cc1 |  |
| 10.6 | Cc1cc(/C=C/C(=O)c2ccc([S+](C)[O-])cc2)cc(C)c1O (stereo not given) |  |
| 8.8 | CSc1ccc(C(=O)/C=C/c2ccc(O)c(C)c2)cc1 |  |
| 5.7 | COc1c(C)cc(/C=C/C(=O)c2ccc(N)cc2)cc1C |  |
| 3.9 | Cc1cc(/C=C/C(=O)c2ccc(Cl)cc2)cc(C)c1O |  |
| 3.5 | CSc1ccc(C(=O)/C=C/c2ccc(C(=O)O)cc2)cc1 |  |
| 3.4 | Cc1cc(/C=C/C(=O)c2ccc(NS(=O)(=O)NC(C)C)cc2)cc(C)c1O |  |
| 2.1 | CSc1ccc(C(=O)/C=C/c2cc(C)c(O)c(C)c2)cc1 | Stabilty [2]: Stable; CC50 at 24 h [3]: 86.2 µM; Selectivity Index [4]: 41 |
| 1.6 | CSc1ccc(C(=O)/C=C/c2ccc(O)c(O)c2)cc1 | solubility [5]: Insoluble |
